# Laboratory results from patent US12077503B2, “Substituted cyclic amides and their use as herbicides” (FMC CORPORATION, priority 2015, dated 2024).
# Read-outs that look alike come from different tables or passages of the source.
# Legend:
# Format in all cases: in vivo
# [1] = tested on: wheat (Triticum aestivum); assay: Test A postemergence; conditions: Triticum aestivum, post-emergence, 240 h, 125 g ai/ha, postemergence
# Summary of the method: (§1)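 Greenhouse, ~10 d after spray; visual injury vs untreated controls, 0 = no effect, 100 = complete control. Preemergence: directed soil spray over planted seeds. Postemergence: plants 2–10 cm, 1–2 leaf stage. Loam/sand blend. Compound in non-phytotoxic solvent with surfactant.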
# [2] = tested on: blackgrass (Alopecurus myosuroides); assay: Test A postemergence; conditions: Alopecurus myosuroides, post-emergence, 240 h, postemergence; for pest or weed control at 125 g/ha: 125 g ai/ha
# Summary of the method: as §1
# [3] = tested on: ryegrass, Italian (Italian ryegrass, Lolium multiflorum); assay: Test A postemergence; conditions: Lolium multiflorum, post-emergence, 240 h, postemergence; for pest or weed control at 125 g/ha: 125 g ai/ha
# Summary of the method: as §1
# [4] = tested on: barnyardgrass (Echinochloa crus-galli); assay: Test A postemergence; conditions: Echinochloa crus-galli, post-emergence, 240 h, postemergence; for pest or weed control at 125 g/ha: 125 g ai/ha
# Summary of the method: as §1
# corn (Zea mays) = assay: Test A postemergence; conditions: Zea mays, post-emergence, 240 h, postemergence; for Corn plant response rating (crop injury, 0 = no effect, 100 = complete kill) at 125 g/ha: visual injury after approximately 10 d, 0 to 100 scale (0 no effect, 100 complete control)
# Summary of the method: as §1
# [5] = tested on: ragweed (common ragweed, Ambrosia elatior); assay: Test A postemergence; conditions: Ambrosia artemisiifolia, post-emergence, 240 h, postemergence; for pest or weed control at 125 g/ha: 125 g ai/ha
# Summary of the method: as §1
# [6] = tested on: giant foxtail (Setaria faberii); assay: Test A postemergence; conditions: Setaria faberi, post-emergence, 240 h, postemergence; for pest or weed control at 125 g/ha: 125 g ai/ha
# Summary of the method: as §1
# [7] = tested on: pigweed (Amaranthus retroflexus); assay: Test A postemergence; conditions: Amaranthus retroflexus, post-emergence, 240 h, postemergence; for pest or weed control at 125 g/ha: 125 g ai/ha
# Summary of the method: as §1
# Kochia (Kochia scoparia) = assay: Test A postemergence; conditions: Bassia scoparia, post-emergence, 240 h, postemergence; for pest or weed control at 125 g/ha: 125 g ai/ha
# Summary of the method: as §1
# [8] = tested on: Galium (catchweed bedstraw, Galium aparine); assay: Test A postemergence; conditions: Galium, post-emergence, 240 h, postemergence; for pest or weed control at 125 g/ha: 125 g ai/ha
# Summary of the method: as §1
# [9] = tested on: ducksalad (Heteranthera limosa); assay: Test B flooded paddy test; conditions: Heteranthera limosa, Flood, 250 g ai/ha, read-out: Ducksalad plant response rating
# Summary of the method: (§2)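 2-leaf plants; pots flooded 3 cm over soil; cpd added to paddy water; depth held; greenhouse 13–15 d; visual rating vs controls, 0 = no effect, 100 = complete control.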
# [10] = tested on: barnyardgrass (Echinochloa crus-galli); assay: Test B flooded paddy test; conditions: Echinochloa crus-galli, Flood, 250 g ai/ha, read-out: Barnyardgrass plant response rating
# Summary of the method: as §2
# [11] = tested on: sedge, umbrella (small-flower umbrella sedge, Cyperus difformis); assay: Test B flooded paddy test; conditions: Cyperus difformis, Flood, 250 g ai/ha, read-out: Sedge, Umbrella plant response rating
# Summary of the method: as §2
# rice (Oryra sativa) = assay: Test B flooded paddy test; conditions: Oryza sativa, Flood, 250 g ai/ha, read-out: Rice plant response rating
# Summary of the method: as §2
# [12] = visual injury after approximately 10 d, 0 to 100 scale (0 no effect, 100 complete control), read-out: Plant response rating, Wheat
# [13] = visual injury after approximately 10 d, 0 to 100 scale (0 no effect, 100 complete control), read-out: Plant response rating, Blackgrass
# [14] = visual injury after approximately 10 d, 0 to 100 scale (0 no effect, 100 complete control), read-out: Plant response rating, Ryegrass, Italian
# [15] = visual injury after approximately 10 d, 0 to 100 scale (0 no effect, 100 complete control), read-out: Plant response rating, Barnyardgrass
# [16] = visual injury after approximately 10 d, 0 to 100 scale (0 no effect, 100 complete control), read-out: Plant response rating, Ragweed
# [17] = visual injury after approximately 10 d, 0 to 100 scale (0 no effect, 100 complete control), read-out: Plant response rating, Foxtail, Giant
# [18] = visual injury after approximately 10 d, 0 to 100 scale (0 no effect, 100 complete control), read-out: Plant response rating, Pigweed
# [19] = visual injury after approximately 10 d, 0 to 100 scale (0 no effect, 100 complete control), read-out: Plant response rating, Kochia
# [20] = visual injury after approximately 10 d, 0 to 100 scale (0 no effect, 100 complete control), read-out: Plant response rating, Galium
# [21] = scale of 0 to 100 where 0 is no effect and 100 is complete control
# [22] = 0 to 100 scale where 0 is no effect and 100 is complete control
smiles,measurement,setting,value
CCc1cc(CC)cc([C@H]2CN(C)C(=O)[C@@H]2C(=O)Nc2cccc(F)c2F)c1 [Compound 736],plant injury at 125 g/ha,[1]; [12],50%
same,pest or weed control at 125 g/ha,[2]; [13],60%
same,pest or weed control at 125 g/ha,[3]; [14],80%
same,pest or weed control at 125 g/ha,[4]; [15],90%
same,"Corn plant response rating (crop injury, 0 = no effect, 100 = complete kill) at 125 g/ha",corn (Zea mays); 125 g ai/ha,90%
same,pest or weed control at 125 g/ha,[5]; [16],0%
same,pest or weed control at 125 g/ha,[6]; [17],90%
same,pest or weed control at 125 g/ha,[7]; [18],20%
same,pest or weed control at 125 g/ha,Kochia (Kochia scoparia); [19],20%
same,pest or weed control at 125 g/ha,[8]; [20],50%
same,pest or weed control at 250 g/ha,[9]; [21],40%
same,pest or weed control at 250 g/ha,[10]; [21],40%
same,pest or weed control at 250 g/ha,[11]; [21],0%
same,pest or weed control at 250 g/ha,rice (Oryra sativa); [21],0%
O=C1NC[C@H](c2cccc(C(F)(F)F)c2)C1C(=O)Nc1ccccc1CO (stereo partly drawn) [Compound 1244],plant injury at 125 g/ha,"[1]; visual injury vs untreated controls after approx. 10 d, 0 = no effect, 100 = complete control, read-out: Wheat plant response rating (0 to 100 scale)",0%
same,pest or weed control at 125 g/ha,"[2]; visual injury vs untreated controls after approx. 10 d, 0 = no effect, 100 = complete control, read-out: Blackgrass plant response rating (0 to 100 scale)",0%
same,pest or weed control at 500 g/ha,"[2]; 500 g ai/ha, 0 to 100 scale, 0 is no effect, 100 is complete control, read-out: Blackgrass plant response rating",50%
same,pest or weed control at 125 g/ha,"[3]; visual injury vs untreated controls after approx. 10 d, 0 = no effect, 100 = complete control, read-out: Ryegrass, Italian plant response rating (0 to 100 scale)",0%
same,pest or weed control at 500 g/ha,"[3]; 500 g ai/ha, 0 to 100 scale, 0 is no effect, 100 is complete control, read-out: Ryegrass, Italian plant response rating",30%
same,pest or weed control at 125 g/ha,"[4]; visual injury vs untreated controls after approx. 10 d, 0 = no effect, 100 = complete control, read-out: Barnyardgrass plant response rating (0 to 100 scale)",50%
same,pest or weed control at 500 g/ha,"[4]; 500 g ai/ha, 0 to 100 scale, 0 is no effect, 100 is complete control, read-out: Barnyardgrass plant response rating",80%
same,plant injury at 125 g/ha,"corn (Zea mays); 125 g ai/ha, visual injury vs untreated controls after approx. 10 d, 0 = no effect, 100 = complete control, read-out: Corn plant response rating (0 to 100 scale)",0%
same,plant injury at 500 g/ha,"corn (Zea mays); 500 g ai/ha, 0 to 100 scale, 0 is no effect, 100 is complete control, read-out: Corn plant response rating",40%
same,pest or weed control at 125 g/ha,"[5]; visual injury vs untreated controls after approx. 10 d, 0 = no effect, 100 = complete control, read-out: Ragweed plant response rating (0 to 100 scale)",0%
same,pest or weed control at 500 g/ha,"[5]; 500 g ai/ha, 0 to 100 scale, 0 is no effect, 100 is complete control, read-out: Ragweed plant response rating",0%
same,pest or weed control at 125 g/ha,"[6]; visual injury vs untreated controls after approx. 10 d, 0 = no effect, 100 = complete control, read-out: Foxtail, Giant plant response rating (0 to 100 scale)",50%
same,pest or weed control at 500 g/ha,"[6]; 500 g ai/ha, 0 to 100 scale, 0 is no effect, 100 is complete control, read-out: Foxtail, Giant plant response rating",90%
same,pest or weed control at 125 g/ha,"[7]; visual injury vs untreated controls after approx. 10 d, 0 = no effect, 100 = complete control, read-out: Pigweed plant response rating (0 to 100 scale)",0%
same,pest or weed control at 500 g/ha,"[7]; 500 g ai/ha, 0 to 100 scale, 0 is no effect, 100 is complete control, read-out: Pigweed plant response rating",0%
same,pest or weed control at 125 g/ha,"Kochia (Kochia scoparia); visual injury vs untreated controls after approx. 10 d, 0 = no effect, 100 = complete control, read-out: Kochia plant response rating (0 to 100 scale)",0%
same,pest or weed control at 500 g/ha,"Kochia (Kochia scoparia); 500 g ai/ha, 0 to 100 scale, 0 is no effect, 100 is complete control, read-out: Kochia plant response rating",0%
same,pest or weed control at 125 g/ha,"[8]; visual injury vs untreated controls after approx. 10 d, 0 = no effect, 100 = complete control, read-out: Galium plant response rating (0 to 100 scale)",0%
same,pest or weed control at 500 g/ha,"[8]; 500 g ai/ha, 0 to 100 scale, 0 is no effect, 100 is complete control, read-out: Galium plant response rating",20%
same,pest or weed control at 250 g/ha,[9]; [22],30%
same,pest or weed control at 250 g/ha,[10]; [22],20%
same,pest or weed control at 250 g/ha,[11]; [22],0%
same,pest or weed control at 250 g/ha,rice (Oryra sativa); [22],0%
Cc1ccc([C@H]2CN(C)C(=O)[C@@H]2C(=O)Nc2cccc(F)c2F)c(F)c1 [Compound 730],plant injury at 125 g/ha,[1]; [12],30%
same,pest or weed control at 125 g/ha,[2]; [13],50%
same,pest or weed control at 125 g/ha,[3]; [14],40%
same,pest or weed control at 125 g/ha,[4]; [15],100%
same,"Corn plant response rating (crop injury, 0 = no effect, 100 = complete kill) at 125 g/ha",corn (Zea mays); 125 g ai/ha,20%
same,pest or weed control at 125 g/ha,[5]; [16],20%
same,pest or weed control at 125 g/ha,[6]; [17],90%
same,pest or weed control at 125 g/ha,[7]; [18],20%
same,pest or weed control at 125 g/ha,Kochia (Kochia scoparia); [19],70%
same,pest or weed control at 125 g/ha,[8]; [20],50%
same,pest or weed control at 250 g/ha,[9]; [21],95%
same,pest or weed control at 250 g/ha,[10]; [21],75%
same,pest or weed control at 250 g/ha,[11]; [21],0%
same,pest or weed control at 250 g/ha,rice (Oryra sativa); [21],0%
